Measured values: patent US5162326A, “Pyrimidinedione derivatives, their production and use” (Takeda Chemical Industries, Ltd., priority 1990, dated 1992)

Experiments:
A-II-receptor = biological target: T1, A-II-receptor (Bos taurus, UniProt P25104); assay: Inhibition of Binding of Angiotensin-II to Angiotensin Receptor (125I-A-II, membrane fraction of bovine adrenal cortex); conditions: room temperature, one hour
T1 construct: An A-II-receptor was prepared from the membrane fraction of bovine adrenal cortex; from tissue; host or cells: bovine adrenal cortex, membrane fraction
T1 sequence (P25104 1-359): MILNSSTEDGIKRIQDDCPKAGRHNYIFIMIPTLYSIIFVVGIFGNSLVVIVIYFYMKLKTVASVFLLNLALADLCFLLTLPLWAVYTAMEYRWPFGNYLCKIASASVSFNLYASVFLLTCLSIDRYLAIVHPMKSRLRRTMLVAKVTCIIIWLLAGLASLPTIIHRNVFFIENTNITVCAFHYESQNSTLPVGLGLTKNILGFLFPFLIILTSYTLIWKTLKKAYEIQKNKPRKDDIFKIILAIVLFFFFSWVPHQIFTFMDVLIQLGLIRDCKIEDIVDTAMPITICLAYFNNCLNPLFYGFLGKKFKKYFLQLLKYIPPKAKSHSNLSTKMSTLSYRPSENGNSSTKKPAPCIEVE
Description: Inhibition of Binding of Angiotensin-II to Angiotensin Receptor
An experiment of inhibition on the binding of angiotensin-II (A-II) to A-II-receptor was conducted by modifying the method of Douglas et al. [Endocrinology, 102, 685-696 (1978)]. An A-II-receptor was prepared from the membrane fraction of bovine adrenal cortex.
The compound of the present invention (10^-6 M to 10^-8 M) and ^125 I-A-II (1.85 kBq/50 μl) were added to the receptor membrane fraction, and the mixture was incubated at room temperature for one hour. The receptor-bound and free ^125 I-A-II were separated through a filter (Whatman GF/B filter), and the radioactivity of ^125 I-A-II bound to the receptor was measured.

Pressor Response to A II = assay: Inhibitory Effect of the Compound on Pressor Action of A-II in rats; assay type: in vivo, Jcl: SD rats; conditions: Rattus norvegicus, po
Text: Inhibitory Effect of the Compound of the Present Invention on Pressor Action of A-II
Jcl: SD rats (9 week old, male) were used. On the day previous to the experiment, these animals were applied with cannulation into the femoral artery and vein under anesthesia with pentobarbital Na. The animals were fasted but allowed to access freely to drinking water until the experiment was started. Just on the day of conducting the experiment, the artery cannula was connected with a blood-pressure transducer, and the average blood pressure was recorded by means of polygraph. Before administration of the drug, the pressor action due to intravenous administration of A-II (100 ng/kg) as the control was measured. The drugs were orally administered, and then, at each point of the measurement, A-II was administered intravenously, and the pressor action was similarly measured. By comparing the pressor action before and after administration of the drug, the percent inhibition by the drug on A-II-induced pressor action was evaluated.

angiotensin II = conditions: reported in the literature; cited from earlier work

| SMILES | IC50 (A-II-receptor) | inhibition in vivo at 30 mg/kg (Pressor Response to A II) | angiotensin II antagonistic activity (angiotensin II) |
| --- | --- | --- | --- |
| CCCn1c(=O)cc(SC)n(Cc2ccc(-c3ccccc3-c3nn[nH]n3)cc2)c1=O [compound 1] | 860 nM |  |  |
| CCCn1c(=O)cc(SCC)n(Cc2ccc(-c3ccccc3-c3nn[nH]n3)cc2)c1=O [compound 2] | 20 nM | ≥ 70% |  |
| CCCSc1cc(=O)n(CCC)c(=O)n1Cc1ccc(-c2ccccc2-c2nnn[nH]2)cc1 [compound 3] | 20 nM |  |  |
| CCCCSc1cc(=O)n(CCC)c(=O)n1Cc1ccc(-c2ccccc2-c2nn[nH]n2)cc1 [compound 4] | 40 nM | ≥ 70% |  |
| CCCn1c(=O)cc(SC2CCCCC2)n(Cc2ccc(-c3ccccc3-c3nn[nH]n3)cc2)c1=O [compound 5] | 320 nM | 30 to 50% |  |
| CCCCCSc1cc(=O)n(CCC)c(=O)n1Cc1ccc(-c2ccccc2-c2nn[nH]n2)cc1 [compound 6] | 20 nM | 30 to 50% |  |
| CCCn1c(=O)cc(SCc2ccccc2)n(Cc2ccc(-c3ccccc3-c3nn[nH]n3)cc2)c1=O [compound 7] | 330 nM | < 30% |  |
| CCCn1c(=O)cc(OCC)n(Cc2ccc(-c3ccccc3-c3nn[nH]n3)cc2)c1=O [compound 8] | 60 nM | ≥ 70% |  |
| CCCCn1c(=O)cc(SCCC)n(Cc2ccc(-c3ccccc3-c3nn[nH]n3)cc2)c1=O [compound 9] | 40 nM | ≥ 70% |  |
| CCCCn1c(=O)cc(Sc2ccccc2)n(Cc2ccc(-c3ccccc3-c3nn[nH]n3)cc2)c1=O [compound 10] | 320 nM | < 30% |  |
| CCCNc1cc(=O)n(CCC)c(=O)n1Cc1ccc(-c2ccccc2-c2nn[nH]n2)cc1 [compound 14] | 340 nM | < 30% |  |
| CCCOc1cc(=O)n(CCC)c(=O)n1Cc1ccc(-c2ccccc2-c2nnn[nH]2)cc1 [compound 18] | 140 nM | ≥ 70% |  |
| CCCc1cc(=O)n(CC)c(=O)n1Cc1ccc(-c2ccccc2-c2nn[nH]n2)cc1 [compound 23] | 20 nM | ≥ 70% |  |
| CCCc1cc(=O)n(CCC)c(=O)n1Cc1ccc(-c2ccccc2-c2nn[nH]n2)cc1 [compound 25] | 20 nM | ≥ 70% |  |
| CCCCn1c(=O)cc(CCC)n(Cc2ccc(-c3ccccc3-c3nn[nH]n3)cc2)c1=O [compound 26] | 20 nM | ≥ 70% |  |
| CCCc1cc(=O)n(CC(=O)OC)c(=O)n1Cc1ccc(-c2ccccc2-c2nn[nH]n2)cc1 [compound 27] | 10 nM | ≥ 70% |  |
| CCCc1cc(=O)n(CC(=O)OCC)c(=O)n1Cc1ccc(-c2ccccc2-c2nn[nH]n2)cc1 [compound 28] | 20 nM | ≥ 70% |  |
| CNCC(=O)N[C@@H](CCCN=C(N)N)C(=O)N[C@H](C(=O)N[C@@H](Cc1ccc(O)cc1)C(=O)N[C@H](C(=O)N[C@@H](Cc1cnc[nH]1)C(=O)N1CCC[C@H]1C(=O)N[C@@H](C)C(=O)O)C(C)C)C(C)C [saralasin] |  |  | potent angiotensin II antagonistic activity |
